Results: patent EP0944595B1, “5-CYCLO INDOLE COMPOUNDS AS 5-HT1D RECEPTOR LIGANDS” (NPS Allelix Corp., priority 1996, dated 1998)

System: protein extravasation
Experiment: Inhibition of protein extravasation, trigeminal stimulation assay
Assay type: in vivo, Guinea pigs
Conditions: guinea pig dura mater, [125I]-BSA extravasation after stimulation of the right trigeminal ganglion
Protocol: Compounds of the inventions were evaluated for their ability to block neurogenic inflammation via inhibition of protein extravasation using the trigeminal stimulation assay as described in Markowitz, et al. J, Neurosci. 1987, 7:4129 and Lee, et al. Brain Res, 1993, 626:303. This is believed to indicate a compound's ability to act as an agonist at the 5-HT1Da and/or 5-HT1F receptors.
Guinea pigs were anesthetized with pentobarbitone sodium (60 mg kg^-1, i.p.). Animals were placed in a stereotaxic frame (DKI 900, David Kopf Instruments, Tujunga, CA, U.S.A.). The right femoral vein was exposed and [^125I]-BSA ([…]) was injected as a bolus. With the incisor bar set at -1.5 mm from the horizontal line, the calvarium was exposed by a midline incision. Symmetrical burr holes (2 mm in diameter) were drilled at 3.7 mm posterior to the bregma and 3.2 mm lateral to the sagittal suture. Bipolar electrodes (50 mm shaft, Rhodes Medical Instruments, Woodland Hills, CA, U.S.A.) were lowered into the trigeminal ganglia to a depth of 9.5 mm from the dura mater overlying the dorsal surface of the brain. […] Radioactivity was determined on two sides with a gamma counter (Micromedic 4/600, Micromedic Systems, Inc., Huntsville, AL, U.S.A.) as previously described (Markowitz, et al., 1987 and Lee, et al., 1993).

CNS(=O)(=O)Cc1ccc2[nH]cc(CCN(C)C)c2c1 [sumatriptan]
ID50: 3.3 to 7 nM/kg
